From patent US8618063B2, “Method for treating a synucleinopathy” (The Board of Trustees of the University of Illinois, priority 2008, dated 2013)

Tests used:
[1] = test system: MPP+ effects on fast axonal transport; assay: Isolated axoplasm: blocking of MPP+ effects on fast axonal transport; type: cell-based, squid Loligo pealeii; details: for blocking of MPP+ effects on fast axonal transport: FIG. 5B
Experimental: (§1) Axoplasm was extruded from giant axons of the squid Loligo pealeii (Marine Biological Laboratory) according to established methods (Brady, et al. (1985) Cell Motil. 5(2):81-101). Axons were 400-600 μm in diameter and provided ≈5 μl of axoplasm per axon. Wild-type α-synuclein or α-synuclein with point mutations associated with familial Parkinson's disease (Ala30Pro or Ala53Thr), MPP+, enzymes or inhibitors were diluted into X/2 buffer (175 mM potassium aspartate, 65 mM taurine, 35 mM betaine, 25 mM glycine, 10 mM HEPES, 6.5 mM MgCl2, 5 mM EGTA, 1.5 mM CaCl2, 0.5 mM glucose, pH 7.2) supplemented with 2-5 mM ATP and 20 μl of this mix was added to perfusion chambers (Brady, et al. (1985) supra). Preparations were analyzed on a ZEISS AXIOMAT with a 100×, 1.3 na objective, and DIC optics. Hamamatsu Argus 20 and Model 2400 CCD camera were used for image processing and analysis. Organelle velocities were measured with a Photonics Microscopy C2117 video manipulator (Hamamatsu).
(§2) MPTP/MPP+ is the best characterized example of toxin-induced Parkinson's disease. The effects of MPP+ on fast axonal transport were examined in axoplasm as was dynein phosphorylation in cells. […] Based on reports that MPP+ could activate caspase3 (Turmel, et al. (2001) Mov. Disord. 16:185-9) and that caspase3 can activate a PKC by proteolytic cleavage (Kaul, et al. (2003) Eur. J. Neurosci. 18:1387-401), the ability of a caspase3 inhibitor to block effects of MPP+ on fast axonal transport was evaluated. […] Further, perfusion with Caspase 3 affected retrograde transport in a manner similar to PKC and MPP+ (retrograde transport=1.462±0.016 μm/sec).

DIC phosphorylation = assay: Labeling studies with MPP+ treated cortical neurons; type: cell-based
Experimental: One mCi ^32P phosphate (ICN) was added per dish and incubated for 4 hours. Medium was discarded, cells homogenized in 1 ml of ROLB buffer and processed accordingly to standard methods (Morfini, et al. (2004) supra). Axoplasms were prepared as for video microscopy, but 1 mCi of γ-^32P-ATP was added. After 50 minutes incubation, axoplasms were homogenized in ROLB buffer. A 10 μl aliquot of lysate was precipitated with 15% TCA and radioactivity incorporated into protein determined by scintillation counting. Aliquots of equal counts were used for kinesin immunoprecipitation with 10 μg of 74.1 antibody and Protein G-agarose beads (Pierce). Immunoprecipitates were separated by SDS-PAGE, dried and exposed in a PHOSPHORIMAGER cassette, then scanned and quantified on a TYPHOON (Amersham/Molecular Dynamics).
as §2

[2] = test system: α-synuclein mutant Ala30Pro effects on fast axonal transport; assay: Isolated axoplasm: blocking of mutant α-synuclein (Ala30Pro) effects on fast axonal transport; type: cell-based, squid Loligo pealeii; details: coperfused with α-synuclein mutant Ala30Pro, FIG. 3
Experimental: as §1
Accordingly, these inhibitors were coperfused with pathological α-synuclein mutant Ala30Pro and fast axonal transport was monitored. […] Similarly, the effects of α-synuclein mutant Ala30Pro could be blocked by a PKCmu peptide substrate (FIG. 3B) and an inhibitor of Src-Family Tyrosine Kinases (PP2) (FIG. 3C).

[3] = test system: Ala30Pro mutant α-synuclein induced failure of neurotransmission; assay: Squid giant synapse: prevention of Ala30Pro α-synuclein induced failure of neurotransmission; type: cell-based; details: co-injection / coperfusion with Ala30Pro α-synuclein
Experimental: (§3) If they both work by activating PKC and increasing retrograde transport, they might affect availability of synaptic vesicle components in presynaptic terminals. Accordingly, either wild-type α-synuclein, Ala30Pro α-synuclein, or MPP+ were injected into the presynaptic side of the squid giant synapse as described for synaptic vesicles and synapsin (McGuinness, et al. (1989) J. Neurosci. 9:4138-4149; Llinas, et al. (1989) Proc. Nat. Acad. Sci. USA 86:5656-5660). This preparation has been used to evaluate the effects of reagents on presynaptic function by injecting, then stimulating the presynaptic side while recording intracellularly on both pre- and post-synaptic sides (Llinas, et al. (2004) Proc. Natl. Acad. Sci. USA 101:17855-60; Sugimori, et al. (1998) Neuroscience 86:39-51).

[4] = test system: MPP+ induced failure of neurotransmission; assay: Squid giant synapse: prevention of MPP+ induced failure of neurotransmission; type: cell-based; details: co-injection with MPP+
Experimental: as §3

[5] = test system: neurotransmission at squid giant synapse; assay: Squid giant synapse: neurotransmission after presynaptic injection; type: cell-based; details: injected into presynaptic side of squid giant synapse; observed up to 90 minutes
Experimental: as §3

fast axonal transport = assay: Motility studies in isolated axoplasm: effect of perfused substance on fast axonal transport; type: cell-based, squid Loligo pealeii; details: substance perfused alone into isolated axoplasm
Experimental: as §1

PKC = PKC activity in axoplasm; type: biochemical, squid
Experimental: In the analysis disclosed herein, 3-4 axoplasms were triturated in KB buffer (10 mM HEPES, pH 7.4, 10 mM MgCl2, 1 mM DTT) and aliquoted. Individual reactions with corresponding in vitro translated AR constructs were started by adding radiolabeled ATP to 100 μM. Reactions were performed in 50 μl, incubated for 20 minutes at room temperature and stopped with 50 μl of 2× sample buffer. Lysates were separated by SDS-PAGE and analyzed by autoradiography.

| Compound | blocking of MPP+ effects on fast axonal transport [1] | blocking of MPP+ effects on fast axonal transport ([1]; listed as caspase3 inhibitor II) | anterograde transport rate in presence of MPP+ and inhibitor ([1]; coperfused with MPP+) [μm/sec] | retrograde transport rate in presence of MPP+ and inhibitor ([1]; coperfused with MPP+) [μm/sec] | blocking of MPP+ induced increase in DIC phosphorylation (DIC phosphorylation; MPP+ treated cortical neurons) | blocking of familial Parkinson's disease mutant α-synuclein (Ala30Pro) effects on fast axonal transport ([2]; listed as Caspase inhibitor) | blocking of familial Parkinson's disease mutant α-synuclein (Ala30Pro) effects on fast axonal transport ([2]; listed as inhibitors of Caspase 3) | prevention of Ala30Pro α-synuclein effect on neurotransmission [3] | prevention of MPP+ induced failure of neurotransmission [4] | DIC phosphorylation (DIC phosphorylation; cortical neurons treated with substance alone) | effect on neurotransmission, in words [5] | retrograde transport rate (fast axonal transport; controls 1.2 μm/sec) [μm/sec] | anterograde transport rate (fast axonal transport; controls 1.6 μm/sec) [μm/sec] | PKC activity in axoplasm (PKC) |
| --- | --- | --- | --- | --- | --- | --- | --- | --- | --- | --- | --- | --- | --- | --- |
| COC(=O)CC[C@H](NC(=O)[C@H](CC(=O)OC)NC(=O)OCc1ccccc1)C(=O)N[C@H](C(=O)N[C@@H](CC(=O)OC)C(=O)CF)C(C)C [Caspase3 Inhibitor II] | completely block | blocked | 1.527±0.019 | 1.187±0.019 | blocked | ineffective | not effective | not effective | prevented | – | – | – | – | – |
| C[n+]1ccc(-c2ccccc2)cc1 [MPP+] | – | – | – | – | – | – | – | – | – | increased DIC phosphorylation | failure of neurotransmission | 1.461±0.023 | 1.272±0.0032 | activated PKC activity |
